Values of other authors in patent US20050014837A1, “Method for treating ocular hypertension and glaucoma” (priority 2001, published 2005).

Details: 0.01% solution; 5, 10 and 20 μL

For `O=C1OC2(c3ccc(O)cc3Oc3cc(O)ccc32)c2ccccc21` [fluorescein], the “initial concentration in meniscus relative to the concentration of the administered fluorescein” value is given as 36-45%.
